Laboratory results as given in patent US5789431A, “Naphthoquinone antitumor compound and method” (The University of North Carolina at Chapel Hill, priority 1996, dated 1998).
Where two headings read alike, the source gives them in different places.

Legend:
KM 12 = experiment: in vitro colon cancer cell growth inhibition (NCI screen)
OVCAR-4 = experiment: in vitro ovarian cancer cell growth inhibition (NCI screen); conditions: OVACR-4
MCF-7 = experiment: in vitro breast cancer cell growth inhibition (NCI screen)
human tumor cell lines = type: cell-based; conditions: for GI50: Homo sapiens
COLO-205 = experiment: in vitro colon cancer cell growth inhibition (NCI screen)
KB cells = experiment: in vitro cytotoxicity screening against KB cells in culture; type: cell-based; conditions: Homo sapiens, calculated from 2 data points across 50% inhibition in cell growth, read-out: ED50 (the source's name)
Method: Compound 5 was assayed for in vitro cytotoxicity against KB cells in culture, following the protocol of Monks. The KB cell line was obtained from the American Type Culture Collection, Rockville, MD, and cells were adapted to grow in antibiotic-free RPMI-1640 medium supplemented with […] calf serum.
The ED50 value was calculated mathematically from 2 data points across 50% inhibition in cell growth.

NCI-H522 = experiment: in vitro non-small cell lung cancer cell growth inhibition (NCI screen)
OVCAR-3 = experiment: in vitro ovarian cancer cell growth inhibition (NCI screen)
SF-268 = experiment: in vitro CNS cancer cell growth inhibition (NCI screen)
SW 620 = experiment: in vitro colon cancer cell growth inhibition (NCI screen)
OVCAR-8 = experiment: in vitro ovarian cancer cell growth inhibition (NCI screen)
U 251 = experiment: in vitro CNS cancer cell growth inhibition (NCI screen)
OVCAR-5 = experiment: in vitro ovarian cancer cell growth inhibition (NCI screen)
HCT-116 = experiment: in vitro colon cancer cell growth inhibition (NCI screen)
HOP-92 = experiment: in vitro non-small cell lung cancer cell growth inhibition (NCI screen)
NCI-H23 = experiment: as above
IGROV1 = experiment: in vitro ovarian cancer cell growth inhibition (NCI screen)
HCC-2998 = experiment: in vitro colon cancer cell growth inhibition (NCI screen)
DU-145 = experiment: in vitro prostate cancer cell growth inhibition (NCI screen)
UACC-257 = experiment: in vitro melanoma cell growth inhibition (NCI screen)
UACC-62 = experiment: as above
MDA-MB-435 = experiment: in vitro breast cancer cell growth inhibition (NCI screen)
MDA-N = experiment: as above
MALME-3M = experiment: in vitro melanoma cell growth inhibition (NCI screen)
SK-MEL-2 = experiment: as above
M14 = experiment: as above
SF-539 = experiment: in vitro CNS cancer cell growth inhibition (NCI screen)
NCI-H460 = experiment: in vitro non-small cell lung cancer cell growth inhibition (NCI screen)
BT-549 = experiment: in vitro breast cancer cell growth inhibition (NCI screen)
SK-MEL-28 = experiment: in vitro melanoma cell growth inhibition (NCI screen)
SNB-75 = experiment: in vitro CNS cancer cell growth inhibition (NCI screen)
RXF-393 = experiment: in vitro renal cancer cell growth inhibition (NCI screen)
786-0 = experiment: as above
SK-OV-3 = experiment: in vitro ovarian cancer cell growth inhibition (NCI screen)
HS 578T = experiment: in vitro breast cancer cell growth inhibition (NCI screen)
SF-295 = experiment: in vitro CNS cancer cell growth inhibition (NCI screen)
[1] = cancer cell panel, general / most cell lines, read-out: logGI50 values in the cancer cell line panel (converted)

## CCn1c(C)nc2c1C(=O)c1ccccc1C2=O [Compound 5, 1-ethyl-2-methylnaphth-[2,3-d]imidazole-4,9-dione]
KM 12
  cytotoxicity log GI50: -5.76 M
OVCAR-4
  cytotoxicity log GI50: -6.49 M
MCF-7
  cytotoxicity log GI50: -6.17 M
Human tumor cell lines; OVCAR-3, -4, -5, and -8 ovarian cancer cell lines, read-out: logGI50 values (range over cell lines) (converted)
  GI50: 50.1 to 794 nM
Human tumor cell lines; [1]
  GI50: 100 to 1000 nM
Human tumor cell lines; cancer cell line panel
  cytotoxicity against tumor cells (in words): most active naphth[2,3-d]imidazole-4,9-dione derivative
COLO-205
  cytotoxicity log GI50: -6.45 M
KB cells
  IC50: < 0.4 µg/mL
NCI-H522
  cytotoxicity log GI50: -6.62 M
OVCAR-3
  cytotoxicity log GI50: -7.30 M
SF-268
  cytotoxicity log GI50: -6.48 M
SW 620
  cytotoxicity log GI50: -6.17 M
OVCAR-8
  cytotoxicity log GI50: -6.31 M
U 251
  cytotoxicity log GI50: -5.72 M
OVCAR-5
  cytotoxicity log GI50: -6.11 M
HCT-116
  cytotoxicity log GI50: -5.91 M
HOP-92
  cytotoxicity log GI50: -5.79 M
NCI-H23
  cytotoxicity log GI50: -5.81 M

## COC(=O)CCCC(=O)NC1=C(Nc2ccc(OC)cc2)C(=O)c2ccccc2C1=O [Compound 53]
IGROV1
  cytotoxicity log GI50: -4.74 M
HCC-2998
  cytotoxicity log GI50: -4.69 M
OVCAR-4
  cytotoxicity log GI50: -4.75 M
MCF-7
  cytotoxicity log GI50: -4.77 M
DU-145
  cytotoxicity log GI50: -4.79 M
UACC-257
  cytotoxicity log GI50: -4.74 M
UACC-62
  cytotoxicity log GI50: -4.89 M
MDA-MB-435
  cytotoxicity log GI50: -4.74 M
MDA-N
  cytotoxicity log GI50: -4.68 M
MALME-3M
  cytotoxicity log GI50: -5.47 M
SK-MEL-2
  cytotoxicity log GI50: -4.75 M
M14
  cytotoxicity log GI50: -4.71 M
SF-539
  cytotoxicity log GI50: -4.71 M
OVCAR-3
  cytotoxicity log GI50: -5.20 M
NCI-H460
  cytotoxicity log GI50: -4.80 M
BT-549
  cytotoxicity log GI50: -4.71 M
OVCAR-5
  cytotoxicity log GI50: -4.73 M
HCT-116
  cytotoxicity log GI50: -4.71 M
NCI-H23
  cytotoxicity log GI50: -4.69 M
SK-MEL-28
  cytotoxicity log GI50: -4.68 M

## CCn1c(-c2cc(OC)cc(OC)c2)nc2c1C(=O)c1ccccc1C2=O [Compound 28]
SNB-75
  cytotoxicity log GI50: -4.65 M
RXF-393
  cytotoxicity log GI50: -4.86 M
UACC-62
  cytotoxicity log GI50: -4.69 M
Human tumor cell lines; [1]
  GI50: ~10000 nM
786-0
  cytotoxicity log GI50: -4.34 M
SK-OV-3
  cytotoxicity log GI50: -5.41 M
NCI-H522
  cytotoxicity log GI50: -5.19 M
HS 578T
  cytotoxicity log GI50: -4.44 M
SF-295
  cytotoxicity log GI50: -4.53 M
